Assay results from patent US10947196B2, “Beta adrenergic agonist and methods of using the same” (CURASEN THERAPEUTICS, INC., priority 2019, dated 2021).
Like-named read-outs stand apart in the source and are kept apart here.

Experiments:
[1] = Monkey pharmacokinetic studies; assay type: in vivo, male Non-Naïve Cynomolgus Monkeys; parameters: AUClast/D: unit not given here; details: PO 0.3 mg/kg; for AUC(0-inf) / AUC(0-t) / Cmax / Tmax / half-life / MRT inf: male, cynomolgus monkey; for MRT inf: read-out: MRTInf—obs
Description: The rat pharmacokinetics studies of exemplary compounds 03-3, 03-5, and 03-115 were conducted with male SD rats. These rats were typically about 6-8 weeks old, weighing 200 g to 300 g. Animals were fasted overnight and free access to food 4 hours after dosing. A required volume of vehicle was added to reach the target concentration of the test article and vehicle component to prepare for the dosing. The dosing vehicle was PEG400 or 30% PEG400 in saline for IV, or 0.5% methylcellulose in water for PO. For IV dosing, the animals were administered intravenously via tail vein. For PO dosing, the animals were administered via oral gavage. After dosing, blood sample was collected (˜0.2 mL per time point) through jugular vein or heart puncture. Blood of each sample was transferred into plastic micro centrifuge tubes containing EDTA-K2. Collection tubes with blood samples and anticoagulant were inverted several times for proper mixing of the tube contents and then placed on wet ice. The blood samples were centrifuged at 2000 g for 5 minutes at 4° C. to obtain plasma which was stored in a freezer at −75±15° C. prior to analysis. Samples were analyzed using LC-MS/MS. WinNonlin were used for pharmacokinetic calculations.
Monkey pharmacokinetics studies of exemplary compounds 03-3, 03-5, and 03-115 were conducted substantially similarly to the rat pharmacokinetic studies, instead using male Non-Naïve Cynomolgus Monkeys. Animals for PO studies were food fasted overnight prior to dosing and were fed approximately 2 hours after dosing. Animals for IV studies had free access to food and water. Blood samples were collected through venipuncture of peripheral veins except the dosing vein.

MDR1 = test: MDCK-MDR1 permeability assay; assay type: in vitro ADME; details: dog, MDCK-MDR1, pH 7.4; Papp(B-A)/Papp(A-B)
Description: (§1) Preparation of MDCK-MDR1 Cells. Cell culture medium of was added to each well of the Transwell insert (50 μL) and reservoir (25 mL). The HTS transwell plates were then incubated at 37° C., 5% CO2 for 1 hour before cell seeding. MDCK-MDR1 cells were diluted to 1.56×10^6 cells/mL with culture medium and 50 μL of cell suspension were dispensed into the filter well of the 96-well HTS Transwell plate. Cells were cultivated for 4-8 days in a cell culture incubator at 37° C., 5% CO2, 95% relative humidity. Cell culture medium was replaced every other day, beginning no later than 24 hours after initial plating.
(§2) Preparation of Stock Solutions. 10 mM stock solutions of test compounds were prepared in DMSO. The stock solutions of positive controls were prepared in DMSO at the concentration of 10 mM. Metoprolol, prazosin and imatinib were used as control compounds in this assay.
(§3) Assessment of Cell Monolayer Integrity. Medium was removed from the reservoir and each Transwell insert and replaced with prewarmed fresh culture medium. Transepithelial electrical resistance (TEER) across the monolayer was measured using Millicell Epithelial Volt-Ohm measuring system (Millipore, USA). The Plate was returned to the incubator once the measurement was done. TEER value should be greater than 42 ohm·cm2, which indicates the well-qualified MDCK-MDR1 monolayer. The TEER value was calculated according to the following equation: TEER measurement (ohms)×Area of membrane(cm^2)=TEER value(ohm·cm^2)
(§4) Assay Procedures. The MDCK-MDR1 plate was removed from the incubator and washed twice with pre-warmed HBSS (10 mM HEPES, pH 7.4), and then incubated at 37° C. for 30 minutes. The stock solutions of test compounds and controls were diluted in DMSO to get 1 mM solutions and then diluted with HBSS (10 mM HEPES, pH 7.4) to get 5 μM working solutions. The final concentration of DMSO in the incubation system was 0.5%.
(§5) To determine the rate of drug transport in the apical to basolateral direction, 125 μL of 5 μM working solution of test compound and control compound were added to the Transwell insert (apical compartment), and transfer 50 μL sample (DO sample) immediately from the apical compartment to a new 96-well plate. The wells in the receiver plate (basolateral compartment) were filled with 235 μL of HBSS (10 mM HEPES, pH 7.4). The assay was performed in duplicate.
(§6) To determine the rate of drug transport in the basolateral to apical direction, 285 μL of 5 μM working solution of test compound and control compound were to the receiver plate wells (basolateral compartment), and transfer 50 μL sample (DO sample) immediately from the basolateral compartment to a new 96-well plate. The wells in the Transwell insert (apical compartment) were filled with 75 μL of HBSS (10 mM HEPES, pH 7.4). The plates were incubated at 37° C. for 2 hours. At the end of the incubation, 50 μL samples from donor sides (apical compartment for Ap→Bl flux, and basolateral compartment for Bl→Ap) and receiver sides (basolateral compartment for Ap→Bl flux, and apical compartment for Bl→Ap) were transferred to wells of a new 96-well plate, followed by the addition of 4 volume of cold methanol containing appropriate internal standards (IS). Samples were Vortexed for 5 minutes and then centrifuged at 3,220 g for 40 minutes. An aliquot of 100 μL of the supernatant was mixed with an appropriate volume of ultra-pure water before LC-MS/MS analysis.
(§7) To determine the Lucifer Yellow leakage after 2 hour transport period, stock solution of Lucifer yellow was prepared in DMSO and diluted with HBSS (10 mM HEPES, pH 7.4) to reach a final concentration of 100 μM. Lucifer yellow solution (100 μL) was added to each Transwell insert (apical compartment), followed by filling the wells in the receiver plate (basolateral compartment) with 300 μL of HBSS (10 mM HEPES, pH 7.4). […]

[2] = MDCK-MDR1 permeability assay; assay type: in vitro ADME; details: dog, MDCK-MDR1, pH 7.4, 5 μM, 2 hours; for Papp A→B at 2 h, 5 μM: apical to basolateral; for Papp B→A at 2 h, 5 μM: basolateral to apical
Description: as §1, §2, §3, §4, §5, §6, §7

| Structure (SMILES) | AUClast/D [1] | AUC—% Extrap—obs [1] [%] | F [1] [%] | AUC(0-inf) ([1]; plasma) [ng·h/mL] | AUC(0-t) ([1]; plasma) [ng·h/mL] | Cmax ([1]; plasma) [ng/mL] | Tmax ([1]; plasma) [h] | half-life ([1]; plasma) [h] | MRT inf ([1]; plasma) [h] | efflux ratio at 2 h, 5 μM (MDR1) | Papp A→B at 2 h, 5 μM [2] [×10⁻⁶ cm/s] | Papp B→A at 2 h, 5 μM [2] [×10⁻⁶ cm/s] | AUC(0-inf) ([1]; in vivo) [ng·h/mL] | Cmax ([1]; in vivo) [ng/mL] | Tmax ([1]; in vivo) [h] | MRT inf ([1]; in vivo) [h] |
| --- | --- | --- | --- | --- | --- | --- | --- | --- | --- | --- | --- | --- | --- | --- | --- | --- |
| CC(C)(C)NC[C@H](O)c1cccc(C(F)(F)F)n1 [Compound 03-3] | 761 | 1.87 | 44.6 | 232 | 228 | 46.6 | 1 | 4.32 | 4.99 | 0.78 | 25.3 | 19.8 |  |  |  |  |
| CC(C)(C)NC[C@H](O)c1cccc(C#N)n1 [Compound 03-5, (S)-6-(2-(tert-butylamino)-1-hydroxyethyl)picolinonitrile] | 1144 | 2.13 | 88.3 | 351 | 343 | 66.2 | 1 | 4.53 | 5.11 | 1.06 | 15.2 | 16.2 |  |  |  |  |
| Cc1ncccc1[C@@H](O)CNC(C)(C)C [Compound 03-115] |  |  | 71 |  |  |  |  |  |  | 1.58 | 6.96 | 11 | 261 | 67 | 1.17 | 3.46 |
